From BindingDB's records for doi:10.1021/acs.jmedchem.0c00807 (University of Oxford, 2020)

experiment: Modulation of human utrophinA expressed in mouse H2K cells assessed as upregulation of utrophin production after 24 hrs by luciferase reporter gene assay

Q: For `CC(=O)Nc1ccc2oc(-c3ccc4ccccc4c3)nc2c1`, which EC50 is on record?
A: 10 nM

Q: With `CC(C)C(=O)Nc1ccc2oc(-c3ccc4ccccc4c3)nc2c1` as the compound, how does the EC50 read?
A: 38 nM

Q: For `O=S1(=O)CCCN1c1ccc2oc(-c3ccc4ccccc4c3)nc2c1`, which EC50 is on record?
A: 110 nM

Q: Which EC50 does the source give for `CNS(=O)(=O)c1ccc2oc(-c3ccc4ccccc4c3)nc2c1` here?
A: 146 nM

Q: With `CCP(=O)(OC)c1ccc2oc(-c3ccc4ccccc4c3)nc2c1` (stereo not given) as the compound, how does the EC50 read?
A: 4 nM

Q: With `CCP(=O)(OC)c1ccc2nc(-c3ccc4ccccc4c3)oc2c1` (stereo not given) as the compound, how does the EC50 read?
A: 71 nM

Q: For `CCOP(=O)(CC)c1ccc2oc(-c3ccc4ccccc4c3)nc2c1` (stereo not given), which EC50 is on record?
A: 26 nM

Q: For `CCOP(=O)(CC)c1ccc2nc(-c3ccc4ccccc4c3)oc2c1` (stereo not given), which EC50 is on record?
A: 108 nM

Q: For `COP(=O)(c1ccc2oc(-c3ccc4ccccc4c3)nc2c1)C(C)C` (stereo not given), which EC50 is on record?
A: 34 nM

Q: With `COP(=O)(c1ccc2nc(-c3ccc4ccccc4c3)oc2c1)C(C)C` (stereo not given) as the compound, how does the EC50 read?
A: 234 nM

Q: Which EC50 does the source give for `COP(=O)(c1ccc2oc(-c3ccc4ccccc4c3)nc2c1)C(C)(C)C` (stereo not given) here?
A: 148 nM

Q: With `CCP(=O)(OC)c1ccc2oc(-c3cnc4ccccc4c3)nc2c1` (stereo not given) as the compound, how does the EC50 read?
A: 62 nM

Q: Which EC50 does the source give for `CCP(=O)(OC)c1ccc2oc(-c3ccc4ncccc4c3)nc2c1` (stereo not given) here?
A: 164 nM

Q: With `CCP(=O)(OC)c1ccc2oc(-c3ccc4cccnc4c3)nc2c1` (stereo not given) as the compound, how does the EC50 read?
A: 157 nM

Q: Which EC50 does the source give for `CCP(=O)(OC)c1ccc2oc(-c3ccc4ccncc4c3)nc2c1` (stereo not given) here?
A: 332 nM

Q: Which EC50 does the source give for `CCP(=O)(OC)c1ccc2oc(-c3ccc4cnccc4c3)nc2c1` (stereo not given) here?
A: 1140 nM

Q: Which EC50 does the source give for `CCP(=O)(OC)c1ccc2nc(-c3cnc4ccccc4c3)oc2c1` (stereo not given) here?
A: 71 nM

Q: For `CCP(=O)(OC)c1ccc2nc(-c3ccc4ncccc4c3)oc2c1` (stereo not given), which EC50 is on record?
A: 85 nM

Q: Which EC50 does the source give for `CCP(=O)(OC)c1ccc2nc(-c3ccc4cccnc4c3)oc2c1` (stereo not given) here?
A: 928 nM

Q: Which EC50 does the source give for `CCP(=O)(OC)c1ccc2nc(-c3ccc4ccncc4c3)oc2c1` (stereo not given) here?
A: 1140 nM

Q: Which EC50 does the source give for `CCP(=O)(OC)c1ccc2nc(-c3ccc4cnccc4c3)oc2c1` (stereo not given) here?
A: 1760 nM

Q: For `CCP(=O)(OC)c1ccc2oc(/C=C/c3ccccc3)nc2c1` (stereo not given), which EC50 is on record?
A: 163 nM

Q: For `CCP(=O)(OC)c1ccc2oc(-c3ccc(Cl)cc3)nc2c1` (stereo not given), which EC50 is on record?
A: 112 nM

Q: For `CCP(=O)(OC)c1ccc2oc(-c3cccc(F)c3)nc2c1` (stereo not given), which EC50 is on record?
A: 823 nM

Q: For `CCP(=O)(OC)c1ccc2oc(-c3ccc(C(F)(F)F)cc3)nc2c1` (stereo not given), which EC50 is on record?
A: 548 nM

Q: For `CCP(=O)(OC)c1ccc2oc(-c3ccccc3C(F)(F)F)nc2c1` (stereo not given), which EC50 is on record?
A: 861 nM

Q: With `CCP(=O)(OC)c1ccc2oc(-c3ccc(F)cc3F)nc2c1` (stereo not given) as the compound, how does the EC50 read?
A: 777 nM

Q: For `CCP(=O)(OC)c1ccc2oc(-c3cccc(Cl)c3F)nc2c1` (stereo not given), which EC50 is on record?
A: 198 nM

Q: Which EC50 does the source give for `CCP(=O)(OC)c1ccc2oc(-c3ccc(Cl)c(Cl)c3)nc2c1` (stereo not given) here?
A: 118 nM

Q: For `CCP(=O)(OC)c1ccc2oc(-c3cccc(Cl)c3Cl)nc2c1` (stereo not given), which EC50 is on record?
A: 244 nM

Q: For `CCP(=O)(OC)c1ccc2oc(-c3c(F)ccc(Cl)c3F)nc2c1` (stereo not given), which EC50 is on record?
A: 1770 nM

Q: With `CCP(=O)(OC)c1ccc2oc(-c3ccc(Cl)s3)nc2c1` (stereo not given) as the compound, how does the EC50 read?
A: 168 nM

Q: With `CCP(=O)(OC)c1ccc2oc(-c3sccc3Cl)nc2c1` (stereo not given) as the compound, how does the EC50 read?
A: 1510 nM

Q: Which EC50 does the source give for `CCP(=O)(OC)c1ccc2oc(-c3ccc(C(F)(F)F)o3)nc2c1` (stereo not given) here?
A: 1770 nM

Q: With `CCP(=O)(OC)c1ccc2nc(/C=C/c3ccccc3)oc2c1` (stereo not given) as the compound, how does the EC50 read?
A: 766 nM

Q: For `CCP(=O)(OC)c1ccc2nc(-c3ccc(F)cc3)oc2c1` (stereo not given), which EC50 is on record?
A: 1230 nM

Q: With `CCP(=O)(OC)c1ccc2nc(-c3cccc(F)c3)oc2c1` (stereo not given) as the compound, how does the EC50 read?
A: 2250 nM

Q: With `CCP(=O)(OC)c1ccc2nc(-c3ccc(F)cc3F)oc2c1` (stereo not given) as the compound, how does the EC50 read?
A: 1760 nM

Q: With `CCP(=O)(OC)c1ccc2nc(-c3cccc(Cl)c3Cl)oc2c1` (stereo not given) as the compound, how does the EC50 read?
A: 1950 nM

Q: With `COP(=O)(c1ccc2oc(-c3ccc(F)cc3)nc2c1)C(C)C` (stereo not given) as the compound, how does the EC50 read?
A: 303 nM

Q: Which EC50 does the source give for `COP(=O)(c1ccccc1)c1ccc2oc(-c3ccc(F)cc3)nc2c1` (stereo not given) here?
A: 826 nM

Q: Which EC50 does the source give for `CCOP(=O)(CC)c1ccc2oc(-c3ccc(F)cc3)nc2c1` (stereo not given) here?
A: 1250 nM

Q: Which EC50 does the source give for `COP(=O)(c1ccc2nc(-c3ccc(F)cc3)oc2c1)C(C)C` (stereo not given) here?
A: 1510 nM

Q: With `CCP(=O)(OC)c1cccc2oc(-c3ccc(F)cc3)nc12` (stereo not given) as the compound, how does the EC50 read?
A: 1190 nM

Q: With `CCS(=O)(=O)c1ccc2oc(-c3ccc4ccccc4c3)nc2c1` [BMN 195] as the compound, how does the EC50 read?
A: 187 nM
